According to PMC2909581 (Clinical cancer research : an official journal of the …, 2010):

How the values were obtained:
Hsp90 = test: Western blot of PBMC lysates: Hsp90 levels; type: in vivo, human; conditions: after tanespimycin therapy (on sorafenib)
clinical = type: in vivo, human
kidney cancer = conditions: no prior VEGF inhibitor therapy, single agent; cited from earlier work
Tumor Hsp90 = conditions: cited from earlier work
Hsp70 = test: Western blot of PBMC lysates: Hsp70 levels; type: in vivo, human

## C=CCNC1=C2C[C@@H](C)C[C@H](OC)[C@H](O)[C@@H](C)/C=C(\C)[C@H](OC(N)=O)[C@@H](OC)/C=C\C=C(/C)C(=O)NC(=CC1=O)C2=O [tanespimycin, 17-demethoxy-allylaminogeldanamycin]
Hsp90
  patient samples with decrease in Hsp90 levels: 6 of the 14
clinical; concurrent sorafenib
  Cmax on days 1 and 15 compared: similar
clinical; human, plasma, iv
  half-life: 3.6 h
clinical; intravenous infusion 300-450 mg/m^2
  Cmax (end of infusion) and AUC versus tanespimycin dose: increased with increasing tanespimycin dose
clinical; intravenous infusion, range 4.8 to 32.9 L/h/m^2
  clearance (Mean ± SD): 15.0 ± 7.9 L/h/m^2
Kidney cancer
  response in phase II trial: no objective responses
Tumor Hsp90
  higher binding affinity of tumor Hsp90 (multi-chaperone complexes): 100 fold
Hsp70; after tanespimycin therapy
  patients with increase in Hsp70 level among those showing clinical benefit: 8 of the 10
Hsp70; after treatment with tanespimycin (on sorafenib)
  samples with Hsp70 induction: 11 of 14
